Laboratory results published in paper PMC7495481, “Sequence specificity analysis of the SETD2 protein lysine methyltransferase and discovery of a SETD2 super-substrate” (Communications Biology, 2020).
Values joined by “and” are separate entries in the source; they are usually repeats but may differ in a detail not shown here. Identical values can stand only once.

T1: SETD2 (Homo sapiens, UniProt Q9BYW2)
T1 construct: SETD2 catalytic SET domain (amino acids 1347–1711, UniProt No: Q9BYW2); made in house; host or cells: E. coli
T1 sequence (Q9BYW2 1347-1711): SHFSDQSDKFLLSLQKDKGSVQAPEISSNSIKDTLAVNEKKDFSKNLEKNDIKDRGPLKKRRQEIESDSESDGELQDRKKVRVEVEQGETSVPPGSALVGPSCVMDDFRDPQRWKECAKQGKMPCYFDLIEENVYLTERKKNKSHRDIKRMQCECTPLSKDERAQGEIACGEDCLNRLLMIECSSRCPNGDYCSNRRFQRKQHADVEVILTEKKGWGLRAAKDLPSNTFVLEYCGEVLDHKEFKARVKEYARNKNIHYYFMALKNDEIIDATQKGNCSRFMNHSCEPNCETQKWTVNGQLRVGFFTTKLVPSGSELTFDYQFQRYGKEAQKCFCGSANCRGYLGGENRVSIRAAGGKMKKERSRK

T2: His6-tagged catalytic SET domain of SETD2 (amino acids 1347–1711) (human, UniProt Q9BYW2 1347-1711)
T2 construct: also called SET-domain containing protein 2; KMT3A; source: E. coli, purified (Ni-NTA beads)
T2 sequence (looked up): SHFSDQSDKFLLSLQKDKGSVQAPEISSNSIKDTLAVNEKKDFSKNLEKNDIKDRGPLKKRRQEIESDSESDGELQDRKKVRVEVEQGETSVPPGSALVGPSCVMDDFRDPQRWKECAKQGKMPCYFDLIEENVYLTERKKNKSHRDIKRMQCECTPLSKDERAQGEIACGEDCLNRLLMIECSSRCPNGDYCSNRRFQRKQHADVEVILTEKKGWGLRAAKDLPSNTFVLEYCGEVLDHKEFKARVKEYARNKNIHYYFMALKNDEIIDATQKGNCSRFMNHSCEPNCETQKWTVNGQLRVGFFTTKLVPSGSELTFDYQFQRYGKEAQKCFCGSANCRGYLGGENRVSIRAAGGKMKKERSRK


Molecular target: T1, SETD2
Assay: Peptide SPOT array target lysine methylation of selected non-histone peptides (Fig. 3b)
Type: biochemical
Details: Exp1–Exp3, 3–6 µM SETD2, 0.76 µM AdoMet, 60 min, pH 9
From the text: However, we could identify 166 possible targets, which contain partial matches to the substrate specificity profile. The possible methylation of these 166 putative substrates was investigated at the peptide level. For this, fifteen amino acid long peptides containing the sequence of the non-histone targets surrounding the predicted target lysine were synthesized on a membrane. The H3K36 (29–43) peptide (spots A1, I9), the super-substrate peptide (spots A3, I11) and the corresponding lysine to alanine mutation peptides (spot A2, I10, and A4, I12) were included as positive and negative controls (Fig. 3a, Supplementary Fig. 4 and Supplementary Table 2). The methylation reactions and the detection of the methylation signals were performed in duplicates as described above. We observed that all of the investigated peptides were more weakly methylated than the super-substrate peptide. […] In the next step, 20 of the peptides were selected for further investigation based on the methylation intensity and the known functions of the proteins to confirm the methylation at the predicted target site. The peptides were synthesized on another membrane, now including the target lysine to alanine mutation control peptides in each case. The methylation reactions and the detection of the signal were conducted as described above (Fig. 3b, Supplementary Fig. 5 and Supplementary Table 3).
Fig. 3 Identification of non-histone substrates of SETD2. a Candidate non-histone peptide substrates were identified in the human proteome based on the SETD2 super-substrate specificity profile. The peptides were synthesized on a peptide SPOT array (Supplementary Table 2) and methylated by SETD2. As controls, the H3K36, H3K36A, ssK36 and ssK36A peptides were included on spots A1–A4 and I9–I12. The autoradiography image is an example of the obtained results. […] The quantification of the data of two experiments is shown in Supplementary Fig. 4. b Analysis of target lysine methylation of selected non-histone substrate peptides. Peptide SPOT arrays were synthesized containing the non-histone peptide substrates identified in panel A in addition to the lysine to alanine mutations presented on the array as every second spot (Supplementary Table 3). As controls, the H3K36, H3K36A, ssK36, and ssK36A mutant peptides were included on spot A1–A4 and C5–C8. The autoradiography image is an example of the obtained results. The quantification of the data of three experiments is shown in Supplementary Fig. 5. Peptides selected for furhter analysis are highlighted by blue circles. c Protein methylation of FBN1 and confirmation of the target lysine methylation. Both wild type (WT) and mutant (K666R) FBN1 were purified and equal amounts were methylated by SETD2 (2 µM). […] The size of FBN1 is indicated by an asterisk.
(§1) Peptide arrays containing fifteen amino acid long peptides were synthesized using the SPOT synthesis method[48] with an Autospot peptide array synthesizer (Intavis AG, Köln, Germany). After synthesis, the obtained membranes were pre-incubated in methylation buffer (20 mM Tris/HCl pH 9, 0.01% Triton X-100, 10 mM DTT, 1.5 mM MgCl2) for 5 min on a shaker. Thereafter, the membranes were incubated in methylation buffer supplemented with 0.76 µM radioactively labeled AdoMet (PerkinElmer) and 3–6 µM SETD2 enzyme for 60 min on a shaker. After methylation, the membranes were washed 5 times for 5 min in wash buffer (100 mM NH4HCO3, 1% SDS) and incubated in amplify NAMP100V (GE Healthcare) for 5 min. This was followed by the exposure of the membranes to a hyperfilm^TM high performance autoradiography (GE Healthcare) film at −80 °C in the dark. The films were developed with an Optimax Typ TR machine after different exposue times. For quantification the signal intensities were measured with the Phoretix^TM software and analyzed with Microsoft Excel.

Row | Molecule | Relative methylation signal, Average
1 | APATGGVAKPHRYRP [K36A, H3K36A mutant peptide, negative control, reference compound] | 0.2341 and 0.1607
2 | APATGGVKKPHRYRP [H3K36, H3K36 (29–43) peptide on SPOT array, reference compound] | 0.4318 and 0.3786
3 | KAPRGFLKRVFKRKK [CENPW, Centromere protein W peptide, target lysine 23] | 0.677
4 | EMSIGAIAIALEISL [HMCN1 K to A, target lysine to alanine control] | 0.09371
5 | LICIGALAKLCNHPC [RA54B K to A, target lysine to alanine control] | 0.4423
6 | CRKLGGVKKSATFRS [TPD55, Tumor protein D55 peptide, target lysine 112] | 0.7056
7 | YGPFGYIANPYNIFD [CAC1G K to A, target lysine to alanine control] | 0.03839
8 | YCLIGGVAMTRFICK [DLEC1 K to A, target lysine to alanine control] | 0.4812
9 | LWKIGFFKRPLKKKM [ITA1, Integrin alpha-1 peptide, target lysine 1170] | 0.4107
10 | RRGIGYLALICFLIP [ANKAR K to A, target lysine to alanine control] | 0.01267
11 | ATFLGYFASGLKYKK [GELS K to A, target lysine to alanine control] | 0.4943
12 | GAIIGFIKVGYKKLF [ATAT, Alpha-tubulin N-acetyltransferase 1 peptide, target lysine 98] | 0.7722
13 | YCLIGGVKMTRFICK [DLEC1, Deleted in lung and esophageal cancer protein 1 peptide, target lysine 494] | 0.8047

Molecular target: T2, His6-tagged catalytic SET domain of …
Assay: enzyme inhibition kinetics (competitive inhibition of peptide methylation); 20 µM ssK36 (29–43) substrate peptide, 6 µM SETD2, inhibitor peptide 0 to 320 µM, methylation buffer (20 mM Tris/HCl pH 9, 0.01% Triton X-100, 10 mM DTT, 1.5 mM MgCl2) with 0.76 µM radioactively labeled AdoMet, 25 °C, Tricine-SDS-PAGE and autoradiography; global fit to a competitive inhibition steady-state model
Details: both partners purified

Row | Molecule | Ki [µM]
14 | KSAPATGGVMKPHRYRP (peptide, UniProt P68431 28-44, looked up, histone H3 residues 27–43 with K36M (the oncohistone mutation); source: synthetic peptide, bought: Intavis AG (Köln)) [H3K36M (27–43) peptide] | 447
15 | APRFGGVMRPNRYRP (histone H3 residues 29–43 (UniProt P68431 printed for the parent H3K36 peptide) with the four super-substrate exchanges and K36M; source: synthetic peptide, bought: Innovative Peptide Solutions (Berlin)) [ssK36M peptide (29–43), super-substrate peptide with the target lysine changed to methionine] | 128

Molecular target: T1, SETD2
Assay: Peptide SPOT array methylation of reported SETD2 substrates
Type: biochemical
Details: SPOT array on cellulose membrane; 0.76 µM radioactive AdoMet, 3–6 µM SETD2, 60 min, pH 9; autoradiography
Protocol: Next, the SETD2 activity was tested on peptide SPOT arrays containing fifteen amino acid long peptides immobilized on a cellulose membrane. As reported SETD2 substrates, the H3K36 (29–43), α -tubulin (33–47) and STAT1 (518–532) peptides (with the target lysine centered in each case) were included, and peptides with the corresponding target lysine mutated to alanine were used as negative controls. The peptide array was incubated in methylation buffer supplemented with SETD2 and radioactively labeled AdoMet. […] Methylation of the previously reported non-histone substrates α -tubulin and STAT1 was not detectable at the peptide level and, therefore, they were excluded from further investigation.
as §1
Supplementary Fig. 1: SETD2 protein and catalytic activity. a Purified His6-tagged SETD2 SET domain (1347-1711) was separated on an SDS-gel and […]
stained with Coomassie BB. […]
tubulin (33-47), STAT1 (518-532) and their corresponding target lysine to alanine mutant peptides were synthesized on a cellulose membrane. The membrane was incubated in methylation buffer supplemented with radioactively labeled AdoMet and SETD2. The signal of the transferred radioactive methyl groups was visualized by autoradiography.

Row | Molecule | peptide spot methylation signal
16 | APATGGVAKPHRYRP [K36A, H3K36A mutant peptide, negative control, reference compound] | did not show a detectable peptide methylation signal
17 | DGQMPSDKTIGGGDD [α-tubulin (33–47), reported SETD2 substrate peptide, K40] | did not show a detectable peptide methylation signal
18 | APATGGVKKPHRYRP [H3K36, H3K36 (29–43) peptide on SPOT array, reference compound] | detectable methylation

Molecular target: T1, SETD2
Assay: Peptide SPOT array methylation of H3K36 (29–43) variants, super-substrate design (Fig. 2a)
Type: biochemical
Details: SPOT array; 0.76 µM radioactive AdoMet, 3–6 µM SETD2, 60 min, pH 9; autoradiography
From the text: Based on these observations, we aimed to explore, if better substrates than H3K36 can be designed for SETD2. We synthesized peptide SPOT arrays including H3K36 (29–43) as a positive control and the H3K36A mutant as a negative control, in which up to 5 combined mutations were systematically introduced that converted the original H3K36 residues into residues that are more favored (Fig. 2a and Supplementary Table 1). This peptide array was methylated by SETD2 as described above and the methylation signal was captured by autoradiography.
Fig. 2 Design of an optimized SETD2 peptide substrate and analysis of its methylation. a Variants of the H3K36 (29–43) peptide containing up to five mutations (Supplementary Table 1) were synthesized on a cellulose membrane and methylated by SETD2. The signal of the transferred radioactive methyl groups was detected by autoradiography. Spots A1 and B15 contain the H3K36 sequence, A2 and B16 the H3K36A peptide. Two films with different exposure times are shown to visualize weaker methylated spots as well. b Comparison of the methylation of purified super-substrate (ssK36) and the H3K36 peptides. […] Methylation reactions were conducted using 20 µM peptide and 6 µM enzyme. The lower panels display autoradiography films after different exposure times allowing to compare the methylation levels of the different samples. For comparison, different dilutions of the methylated ssK36 were loaded as indicated. c Time course of ssK36 peptide methylation determined under single turnover conditions using 5 µM substrate and 6 µM enzyme. […] The gels with the radioactive ssK36 (5 µl loaded per well) and H3K36 peptides (20 µl loaded per well) were exposed together to the same x-ray film. […] An enlargement of the H3K36 data with adjusted y-axis scale is shown in Supplementary Fig. 3d.
as §1

Row | Molecule | peptide array methylation of H3K36 variants (in words)
19 | APAFGGVKKPHRYRP [T32F] | stepwise improvement of activity with increasing number of mutations
20 | APRFGGVKKPHRYRP [A31R/T32F] | stepwise improvement of activity with increasing number of mutations
21 | APRFGGVKRPHRYRP [A31R/T32F/K37R] | stepwise improvement of activity with increasing number of mutations
